Reference: publication PMC6891762, “Novel Isoxazolidine and γ-Lactam Analogues of Homonucleosides” (Molecules, 2019)

Key:
Format in all cases: cell-based
[1] = test system: hTERT RPE-1 normal retina (non-cancerous) cells; experiment: Cytostatic activity, normal retina cells; conditions: concentration causing 50% decrease in cell proliferation
Protocol: (§1) The 50% cytostatic inhibitory concentration (IC50) causing a 50% decrease in cell proliferation was determined for all isolated isoxazolidines 14 and γ-lactams 15 toward nine cancerous cell lines (Capan-1 (pancreatic adenocarcinoma), Hap1 (chronic myeloid leukemia), HCT-116 (colorectal carcinoma), NCI-H460 (lung carcinoma), DND-41 (acute lymphoblastic leukemia), HL-60 (acute myeloid leukemia), K-562 (chronic myeloid leukemia), MM.1S (multiple myeloma) and Z-138 (non-Hodgkin lymphoma)) and normal retina (non-cancerous) cells (hTERT RPE-1). Docetaxel, etoposide and stauroporine were used as the reference compounds.
(§2) All assays were performed in 96-well microtiter plates. To each well was added (5−7.5) × 10^4 tumor cells and a given amount of the test compound. The cells were allowed to proliferate at 37 °C in a humidified, CO2-controlled atmosphere. At the end of the incubation period, the cells were counted in a Coulter counter. The IC50 (50% inhibitory concentration) was defined as the concentration of the compound that inhibited cell proliferation by 50%.

[2] = test system: Capan-1 (pancreatic adenocarcinoma) cells; experiment: Cytostatic activity, Capan-1
Protocol: as §1, with “RPE-1).” for “RPE-1). Docetaxel, etoposide and stauroporine were used as the reference compounds.”
as §2, with “counter.” for “counter. The IC50 (50% inhibitory concentration) was defined as the concentration of the compound that inhibited cell proliferation by 50%.”

[3] = test system: Hap1 (chronic myeloid leukemia) cells; experiment: Cytostatic activity, Hap1; conditions: concentration causing 50% decrease in cell proliferation
Protocol: as §1, §2

[4] = test system: HCT-116 (colorectal carcinoma) cells; experiment: Cytostatic activity, HCT-116; conditions: concentration causing 50% decrease in cell proliferation
Protocol: as §1, §2

[5] = test system: NCI-H460 (lung carcinoma) cells; experiment: Cytostatic activity, NCI-H460; conditions: concentration causing 50% decrease in cell proliferation
Protocol: as §1, §2

[6] = Homo sapiens, CAPAN-1, concentration causing 50% decrease in cell proliferation
[7] = concentration causing 50% decrease in cell proliferation

Structure (SMILES) | IC50 [2, 6] [µM] | IC50 ([3]; Homo sapiens, HAP1) [µM] | IC50 ([4]; Homo sapiens, HCT-116) [µM] | IC50 ([5]; Homo sapiens, NCI-H460) [µM] | IC50 [2, 7] [µM] | IC50 [3] [µM] | IC50 [4] [µM] | IC50 [5] [µM] | IC50 (µM) HCT-116 Colorectal Carcinoma [4] | IC50 ([1]; hTERT-RPE1) [µM] | IC50 [1] [µM]
COC(=O)[C@@H]1C[C@H](Cn2ccc(=O)[nH]c2=O)N(C)O1 (relative stereo) [cis-14a, Methyl cis-3-{[2,4-dioxo-3,4–dihydropyrimidin-1(2H)-yl]methyl}-2-methylisoxazolidine-5-carboxylate] | 54.8 | > 100 | > 100 | > 100 |  |  |  |  |  | > 100 | 
COC(=O)[C@@H]1C[C@H](Cn2cc(C)c(=O)[nH]c2=O)N(C)O1 (relative stereo) [cis-14b, Methyl cis-2-methyl-3-{[5-methyl-2,4-dioxo-3,4–dihydropyrimidin-1(2H)-yl]methyl}isoxazolidine-5-carboxylate] | 55.2 | 63 | > 100 | 60.3 |  |  |  |  |  | > 100 | 
COC(=O)[C@@H]1C[C@H](Cn2cc(F)c(=O)[nH]c2=O)N(C)O1 (relative stereo) [cis-14c, Methyl cis-3-{[5-fluoro-2,4-dioxo-3,4–dihydropyrimidin-1(2H)-yl]metyl}-2-methylisoxazolidine-5-carboxylate] |  |  |  |  | > 100 | > 100 | > 100 | > 100 |  |  | > 100
COC(=O)[C@@H]1C[C@H](Cn2cc(Cl)c(=O)[nH]c2=O)N(C)O1 (relative stereo) [cis-14e, Methyl cis-3-{[5-chloro-2,4-dioxo-3,4–dihydropyrimidin-1(2H)-yl]metyl}-2-methylisoxazolidine-5-carboxylate] |  |  |  |  | 51.2 | 44.2 | 26.7 | 48.8 |  |  | > 100
COC(=O)[C@@H]1C[C@H](Cn2cc(I)c(=O)[nH]c2=O)N(C)O1 (relative stereo) [cis-14f, Methyl cis-3-{[5-iodo-2,4-dioxo-3,4–dihydropyrimidin-1(2H)-yl]metyl}-2-methylisoxazolidine-5-carboxylate] |  |  |  |  | 42 | 40.9 | 57.9 | 44.6 |  |  | 
CN1C(=O)[C@H](O)C[C@@H]1Cn1cc(Cl)c(=O)[nH]c1=O (relative stereo) [cis-15e, cis-5-Chloro-1-[(4-hydroxy-1-methyl-5-oxopyrrolidin-2-yl)methyl]pyrimidine-2,4(1H,3H)-dione] | 28 | 51.5 | 58.5 | 28.6 |  |  |  |  | inhibited the proliferation | > 100 | 
COC(=O)[C@H]1C[C@H](Cn2ccc(=O)[nH]c2=O)N(C)O1 (relative stereo) [trans-14a, Methyl trans-3-{[2,4-dioxo-3,4–dihydropyrimidin-1(2H)-yl]methyl}-2-methylisoxazolidine-5-carboxylate] | 62.6 | > 100 | > 100 | 90.3 |  |  |  |  |  | > 100 | 
COC(=O)[C@H]1C[C@H](Cn2cc(F)c(=O)[nH]c2=O)N(C)O1 (relative stereo) [trans-14c, Methyl trans-3-{[5-fluoro-2,4-dioxo-3,4–dihydropyrimidin-1(2H)-yl]metyl}-2-methylisoxazolidine-5-carboxylate] |  |  |  |  | 49 | > 100 | > 100 | > 100 |  |  | > 100
COC(=O)[C@H]1C[C@H](Cn2cc(Br)c(=O)[nH]c2=O)N(C)O1 (relative stereo) [trans-14d, Methyl trans-3-{[5-bromo-2,4-dioxo-3,4–dihydropyrimidin-1(2H)-yl]metyl}-2-methylisoxazolidine-5-carboxylate] |  |  |  |  | 67.8 | > 100 | > 100 | 76.1 |  |  | > 100
COC(=O)[C@H]1C[C@H](Cn2cc(Cl)c(=O)[nH]c2=O)N(C)O1 (relative stereo) [trans-14e, Methyl trans-3-{[5-chloro-2,4-dioxo-3,4–dihydropyrimidin-1(2H)-yl]metyl}-2-methylisoxazolidine-5-carboxylate] |  |  |  |  | 38.5 | 42.7 | 43.5 | 41.9 |  |  | > 100
COC(=O)[C@H]1C[C@H](Cn2cc(I)c(=O)[nH]c2=O)N(C)O1 (relative stereo) [trans-14f, Methyl trans-3-{[5-iodo-2,4-dioxo-3,4–dihydropyrimidin-1(2H)-yl]metyl}-2-methylisoxazolidine-5-carboxylate] |  |  |  |  | 41.4 | 47 | 53.5 | 41.1 |  |  | > 100
COC(=O)[C@H]1C[C@H](CN2CCC(=O)NC2=O)N(C)O1 (relative stereo) [trans-14g, Methyl trans-3-{[2,4-dioxotetrahydropyrimidin-1(2H)-yl]metyl}-2-methylisoxazolidine-5-carboxylate] |  |  |  |  | 38.3 | 58.1 | 61 | 48.6 |  |  | > 100
CN[C@@H]1C[C@H]2O[C@@](C)([C@@H]1OC)n1c3ccccc3c3c4c(c5c6ccccc6n2c5c31)C(=O)NC4 [Stauroporine, reference compound] |  |  |  |  |  | 3.55 | 0.09 | 11.5 |  |  | 0.25

More lines, main results first:

IC50 [2, 6] [µM] | IC50 ([3]; Homo sapiens, HAP1) [µM] | IC50 ([4]; Homo sapiens, HCT-116) [µM] | IC50 ([5]; Homo sapiens, NCI-H460) [µM] | IC50 [2, 7] [µM] | IC50 [3] [µM] | IC50 [4] [µM] | IC50 [5] [µM] | IC50 (µM) HCT-116 Colorectal Carcinoma [4] | Structure (SMILES) | IC50 ([1]; hTERT-RPE1) [µM] | IC50 [1] [µM]
 |  |  |  | 95 | > 100 | 86.4 | 62.3 |  | COC(=O)[C@@H]1C[C@H](Cn2cc(Br)c(=O)[nH]c2=O)N(C)O1 (relative stereo) [cis-14d, Methyl cis-3-{[5-bromo-2,4-dioxo-3,4–dihydropyrimidin-1(2H)-yl]metyl}-2-methylisoxazolidine-5-carboxylate] |  | > 100
62.2 | 45.1 | 49 | 33.2 |  |  |  |  |  | COC(=O)[C@@H]1C[C@H](Cn2cnc3c(=O)n(C)c(=O)n(C)c32)N(C)O1 (relative stereo) [cis-14h, Methyl cis-3-[(1,3-dimethyl-2,6-dioxo-1,2,3,6-tetrahydro-9H-purin-9-yl)methyl]-2-methylisoxazolidine-5-carboxylate] | > 100 | 
18.2 | 50.2 | 43.5 | 42.5 | 21.5 |  |  |  |  | CN1C(=O)[C@H](O)C[C@@H]1Cn1cnc2c(=O)n(C)c(=O)n(C)c21 (relative stereo) [cis-15h, cis-9-[(4-Hydroxy-1-methyl-5-oxopyrrolidin-2-yl)methyl]-1,3-dimethyl-3,9–dihydro-1H-purine-2,6-dione] | > 100 | 
51.3 | > 100 | > 100 | > 100 |  |  |  |  |  | COC(=O)[C@H]1C[C@H](Cn2cc(C)c(=O)[nH]c2=O)N(C)O1 (relative stereo) [trans-14b, Methyl trans-2-methyl-3-{[5-methyl-2,4-dioxo-3,4–dihydropyrimidin-1(2H)-yl]methyl}isoxazolidine-5-carboxylate] | > 100 | 
43.2 | 53.6 | 60.9 | 51.2 |  |  |  |  |  | COC(=O)[C@H]1C[C@H](Cn2cnc3c(=O)n(C)c(=O)n(C)c32)N(C)O1 (relative stereo) [trans-14h, Methyl trans-3-[(1,3-dimethyl-2,6-dioxo-1,2,3,6-tetrahydro-9H-purin-9-yl)methyl]-2-methylisoxazolidine-5-carboxylate] | > 100 | 
